From patent US9682938B2, “Pyrazolone derivatives as nitroxyl donors” (Cardioxyl Pharmaceuticals, Inc., priority 2014, dated 2017)

How the values were obtained:
Format in all cases: in vitro ADME
[1] = In vitro plasma stability, dog plasma; details: male, pH 7.4, 5 μM, 37° C., sampling 0-360 minutes, read-out: T1/2 Dog
Method: (§1) Certain compounds from Table 1 were tested for their stability in plasma. The assay system comprised plasma from rat, dog or human (at least 3 donors, male, pooled) at pH 7.4, and (ii) an anticoagulant (sodium heparin or sodium citrate). Each test compound (5 μM) was incubated in plasma at 37° C. on a THERMOMIXER® with shaking. Three samples (n=3) were taken at each of seven sampling time points: 0, 10, 30, 60, 90, 180 and 360 minutes. The samples were immediately combined with 3 volumes (i.e., 3 times the volume of plasma) of acetonitrile containing 1% formic acid and an internal standard to terminate the reaction. AB SCIEX API 3000 LC-MS/MS analysis of the test compounds was performed without a standard curve. Plasma half-lives (T1/2) of the test compounds were determined from graphs of the percent remaining values using the peak area response ratio.

[2] = In vitro plasma stability, human plasma; details: male, pH 7.4, 5 μM, 37° C., sampling 0-360 minutes, read-out: T1/2 Human
Method: as §1

[3] = In vitro plasma stability, rat plasma; details: male, pH 7.4, 5 μM, 37° C., sampling 0-360 minutes, read-out: T1/2 Rat
Method: as §1

Structure (SMILES)	half-life at 5 μM [1]	half-life at 5 μM [2]	half-life at 5 μM [3]
CN1N=C(C(C)(C)C)C(NO)(c2ccc(S(=O)(=O)N(C)C)cc2)C1=O (stereo not drawn) [Compound 122, 4-[3-tert-Butyl-4-(hydroxyamino)-1-methyl-5-oxo-4,5-dihydro-1H-pyrazol-4-yl]-N,N-dimethylbenzene-1-sulfonamide]	35 min	31 min	34 min
COc1ccc(C2(NO)C(=O)N(C)N=C2C)cc1 (stereo not drawn) [Compound 43, 4-(hydroxyamino)-4-(4-methoxyphenyl)-1,3-dimethyl-1H-pyrazol-5(4H)-one]	23 min	35 min	25 min
C/C(=N\Oc1ccc(Br)cc1)C1(NO)C(=O)N(C)N=C1C(C)(C)C (stereo not drawn) [Compound 118, 4-[1-[(4-Bromophenoxy)imino]ethyl]-3-tert-butyl-4-(hydroxyamino)-1-methyl-4,5-dihydro-1H-pyrazol-5-one]	24 min	5 min	22 min
CN1N=C(c2ccc([S+](C)[O-])c(F)c2)C(C)(NO)C1=O (stereo not drawn) [Compound 38, 5-(3-fluoro-4-(methylsulfinyl)phenyl)-4-(hydroxyamino)-2,4-dimethyl-2,4-dihydro-3H-pyrazol-3-one]	33 min	46 min	54 min
CO/N=C(\C)C1(NO)C(=O)N(C)N=C1c1ccc(OC)cc1 (stereo not drawn) [Compound 107, 4-(Hydroxyamino)-4-[1-(methoxyimino)ethyl]-3-(4-methoxyphenyl)-1-methyl-4,5-dihydro-1H-pyrazol-5-one]	10 min	18 min	49 min
CN1N=C(c2ccc(S(=O)(=O)c3ccccc3)cc2)C(C)(NO)C1=O (stereo not drawn) [Compound 89, 3-[4-(Benzenesulfonyl)phenyl]-4-(hydroxyamino)-1,4-dimethyl-4,5-dihydro-1H-pyrazol-5-one]	29 min	57 min	36 min
CN1N=C(c2ccc(S(=O)(=O)N3CCC(F)(F)CC3)cc2)C(C)(NO)C1=O (stereo not drawn) [Compound 114, 3-{4-[(4,4-Difluoropiperidin-1-yl)sulfonyl]phenyl}-4-(hydroxyamino)-1,4-dimethyl-4,5-dihydro-1H-pyrazol-5-one]	42 min	25 min	49 min
CN1N=C(c2cc(F)c(S(C)(=O)=O)c(F)c2)C(C)(NO)C1=O (stereo not drawn) [Compound 45, 5-(3,5-difluoro-4-(methylsulfonyl)phenyl)-4-(hydroxyamino)-2,4-dimethyl-2,4-dihydro-3H-pyrazol-3-one]	31 min	40 min	25 min
C[C@H](NC(=O)c1ccc(C2=NN(C)C(=O)C2(C)NO)cc1)C(=O)O (stereo partly drawn) [Compound 94]	114 min	103 min	191 min
CCOC1=NN(c2ccc(Br)cc2)C(=O)C1(NO)/C(C)=N/OC (stereo not drawn) [Compound 111, 1-(4-Bromophenyl)-3-ethoxy-4-(hydroxyamino)-4-[1-(methoxyimino)ethyl]-4,5-dihydro-1H-pyrazol-5-one]	24 min	29 min	23 min
CO/N=C(\C)C1(NO)C(=O)N(c2ccccc2)N=C1OC (stereo not drawn) [Compound 116, 4-(Hydroxyamino)-3-methoxy-4-[1-(methoxyimino)ethyl]-1-phenyl-4,5-dihydro-1H-pyrazol-5-one]	18 min	9 min	48 min
CO/N=C(\C)C1(NO)C(=O)N(C)N=C1c1ccc(S(C)(=O)=O)cc1 (stereo not drawn) [Compound 42, 4-(hydroxyamino)-4-(1-(methoxyimino)ethyl)-2-methyl-5-(4-(methylsulfonyl)phenyl)-2,4-dihydro-3H-pyrazol-3-one]	5 min	6 min	9 min
CN1N=C(c2ccccc2[S+](C)[O-])C(C)(NO)C1=O (stereo not drawn) [Compound 21, 4-(hydroxyamino)-2,4-dimethyl-5-(2-(methylsulfinyl)phenyl)-2,4-dihydro-3H-pyrazol-3-one]	24 min	41 min	36 min
CC1=NN(C)C(=O)C1(NO)c1noc(-c2ccccc2)n1 (stereo not drawn) [Compound 132, 4-(Hydroxyamino)-1,3-dimethyl-4-(5-phenyl-1,2,4-oxadiazol-3-yl)-4,5-dihydro-1H-pyrazol-5-one]	< 1 min	< 1 min	< 1 min
C/C(=N\OCc1ccccc1)C1(NO)C(=O)N(C)N=C1C(C)(C)C (stereo not drawn) [Compound 115, 4-[1-[(Benzyloxy)imino]ethyl]-3-tert-butyl-4-(hydroxyamino)-1-methyl-4,5-dihydro-1H-pyrazol-5-one]	27 min	14 min	32 min
CC1=NN(C(C)C)C(=O)C1(NO)c1ccccc1 (stereo not drawn) [Compound 30, 4-(hydroxyamino)-1-isopropyl-3-methyl-4-phenyl-1H-pyrazol-5(4H)-one]	84 min	22 min	32 min
CCC1(NO)C(=O)N(C)N=C1c1ccccc1F (stereo not drawn) [Compound 31, 4-ethyl-5-(2-fluorophenyl)-4-(hydroxyamino)-2-methyl-2,4-dihydro-3H-pyrazol-3-one]	201 min	59 min	66 min
CC(C)(C)C1=NN(c2ccccc2)C(=O)C1(C)NO (stereo not drawn) [Compound 23, 5-(tert-butyl)-4-(hydroxyamino)-4-methyl-2-phenyl-2,4-dihydro-3H-pyrazol-3-one]	120 min	104 min	136 min
CC(C)S(=N)(=O)c1ccc(C2=NN(C)C(=O)C2(C)NO)cc1 (stereo not drawn) [Compound 120, 4-(Hydroxyamino)-3-{4-[imino(oxo)propan-2-yl-λ^6-sulfanyl]phenyl}-1,4-dimethyl-4,5-dihydro-1H-pyrazol-5-one]	31 min	32 min	56 min
CN1N=C(c2ccccc2)C(NO)(c2ccccc2)C1=O (stereo not drawn) [Compound 109, 4-(Hydroxyamino)-1-methyl-3,4-diphenyl-4,5-dihydro-1H-pyrazol-5-one]	11 min	10 min	8 min
COc1ccc(C2(NO)C(=O)N(C)N=C2C)cc1OC (stereo not drawn) [Compound 73, 4-(3,4-Dimethoxyphenyl)-4-(hydroxyamino)-1,3-dimethyl-4,5-dihydro-1H-pyrazol-5-one]	13 min	14 min	18 min

The next lines start with the values.

half-life at 5 μM [1]	half-life at 5 μM [2]	half-life at 5 μM [3]	Structure (SMILES)
78 min	59 min	106 min	CN1N=C(c2ccc(SC(F)(F)F)cc2)C(C)(NO)C1=O (stereo not drawn) [Compound 67, 4-(hydroxyamino)-1,4-dimethyl-3-(4-((trifluoromethyl)thio)phenyl)-1H-pyrazol-5(4H)-one]
136 min	61 min	89 min	CN1N=C(c2ccc(Br)cc2)C(C)(NO)C1=O (stereo not drawn) [Compound 108, 3-(4-Bromophenyl)-4-(hydroxyamino)-1,4-dimethyl-4,5-dihydro-1H-pyrazol-5-one]
32 min	25 min	23 min	CN1N=C(c2ccc(S(C)(=O)=O)c(C(F)(F)F)c2)C(C)(NO)C1=O (stereo not drawn) [Compound 97, 4-(Hydroxyamino)-3-[4-methanesulfonyl-3-(trifluoromethyl)phenyl]-1,4-dimethyl-4,5-dihydro-1H-pyrazol-5-one]
12 min	13 min	9 min	CN1N=C(c2ccc(S(C)(=O)=NC(=O)C(F)(F)F)cc2)C(C)(NO)C1=O (stereo not drawn) [Compound 72, 2,2,2-Trifluoro-N-({4-[4-(hydroxyamino)-1,4-dimethyl-5-oxo-4,5-dihydro-1H-pyrazol-3-yl]phenyl}(methyl)oxo-λ^6-sulfanylidene)acetamide]
175 min	183 min	243 min	CN1N=C(c2ccc(C(=O)O)cc2)C(C)(NO)C1=O (stereo not drawn) [Compound 74, 4-[4-(Hydroxyamino)-1,4-dimethyl-5-oxo-4,5-dihydro-1H-pyrazol-3-yl]benzoic acid]
150 min	77 min	80 min	CN1N=C(c2ccc(OC(F)(F)F)cc2)C(C)(NO)C1=O (stereo not drawn) [Compound 59, 4-(hydroxyamino)-1,4-dimethyl-3-(4-(trifluoromethoxy)phenyl)-1-pyrazol-5(4H)-one]
71 min	58 min	3 min	COC(=O)c1ccc(C2=NN(C)C(=O)C2(C)NO)cc1 (stereo not drawn) [Compound 71, Methyl 4-[4-(hydroxyamino)-1,4 dimethyl-5-oxo-4,5-dihydro-1H-pyrazol-3-yl]benzoate]
256 min	480 min	350 min	COc1ccc(C2=NN(C)C(=O)C2(C)NO)cc1 (stereo not drawn) [Compound 53, 4-(hydroxyamino)-3-(4-methoxyphenyl)-1,4-dimethyl-1H-pyrazol-5(4H)-one]
39 min	47 min	61 min	CCS(=O)(=O)c1ccc(C2=NN(C)C(=O)C2(C)NO)cc1 (stereo not drawn) [Compound 86, 3-[4-(Ethanesulfonyl)phenyl]-4-(hydroxyamino)-1,4-dimethyl-4,5-dihydro-1H-pyrazol-5-one]
